Species: Rattus norvegicus
Test: Open TG-GATES - Regimen: Single
Assay type: toxicity, organism-based, Sprague-Dawley
Design: regimen Single, gender Male, age 6 weeks
Settings: in vivo, po, 0 mg/kg, route gavage, dose level Control; for APTT / Bas / Eos / Fbg / Hb / Ht / Lym / MCH / MCHC / MCV / Mono / Neu / PT / Plat / RBC / Ret / WBC: tissue Blood; for KIDNEY_L / KIDNEY_R / KIDNEY_TOTAL: tissue Kidney; for LIVER: tissue Liver; for A/G / ALP / ALT / AST / BUN / CRE / Ca / Cl / DBIL / GLC / IP / K / LDH / Na / PL / RALB / TBIL / TC / TG / TP / gamma-GTP: tissue Plasma

`O=c1ccc2ccccc2o1` [COUMARIN] showed a TERMINAL_BW (3 h) of 182.8 g, an APTT (3 h) of 16.6 s and a Bas (3 h) of 0%. For the same compound, the Eos (3 h) was 0.6%, the Fbg (3 h) was 205.4 mg/dL and the Hb (3 h) was 13.5 g/dL. It also gave a Ht (3 h) of 40%, a Lym (3 h) of 83.8% and an MCH (3 h) of 22.1 pg. The MCHC (3 h) was 33.6%, the MCV (3 h) was 65.8 fL and the Mono (3 h) was 4.8%. It also gave a Neu (3 h) of 11%, a PT (3 h) of 12.3 s and a Plat (3 h) of 106.1 x10_4/uL. For the same compound, the RBC (3 h) was 608.6 x10_4/ul, the Ret (3 h) was 8.9% and the WBC (3 h) was 102.6 x10_2/uL. It also gave a KIDNEY_L (3 h) of 0.8 g, a KIDNEY_R (3 h) of 0.8 g and a KIDNEY_TOTAL (3 h) of 1.7 g. It also gave an LIVER (3 h) of 8.4 g, an A/G (3 h) of 2.1 and an ALP (3 h) of 1014.2 IU/L. For the same compound, the ALT (3 h) was 43 IU/L, the AST (3 h) was 69.4 IU/L and the BUN (3 h) was 11.2 mg/dL. The CRE (3 h) was 0.5 mg/dL, the Ca (3 h) was 10.9 mg/dL and the Cl (3 h) was 104.8 meq/L. The DBIL (3 h) was 0.026 mg/dL, the GLC (3 h) was 189.4 mg/dL and the IP (3 h) was 10.7 mg/dL. The K (3 h) was 4.7 meq/L, the LDH (3 h) was 76.6 IU/L and the Na (3 h) was 138.6 meq/L. For the same compound, the PL (3 h) was 158.2 mg/dL, the RALB (3 h) was 4 g/dL and the TBIL (3 h) was 0.3 mg/dL. It also gave a TC (3 h) of 81.4 mg/dL, a TG (3 h) of 99.4 mg/dL and a TP (3 h) of 5.8 g/dL. It also gave a gamma-GTP (3 h) of 1.6 IU/L, a TERMINAL_BW (6 h) of 179.5 g and an APTT (6 h) of 16.3 s. The Bas (6 h) was 0%, the Eos (6 h) was 0.8% and the Fbg (6 h) was 205.8 mg/dL. The Hb (6 h) was 13.5 g/dL, the Ht (6 h) was 40.4% and the Lym (6 h) was 75.4%. It also gave an MCH (6 h) of 21.8 pg, an MCHC (6 h) of 33.4% and an MCV (6 h) of 65.4 fL. For the same compound, the Mono (6 h) was 7.8%, the Neu (6 h) was 16.6% and the PT (6 h) was 12.4 s. It also gave a Plat (6 h) of 108.2 x10_4/uL, an RBC (6 h) of 617.2 x10_4/ul and a Ret (6 h) of 9.3%. It also gave a WBC (6 h) of 115.3 x10_2/uL, a KIDNEY_L (6 h) of 0.8 g and a KIDNEY_R (6 h) of 0.9 g. For the same compound, the KIDNEY_TOTAL (6 h) was 1.7 g, the LIVER (6 h) was 7.7 g and the A/G (6 h) was 2.1. For the same compound, the ALP (6 h) was 982 IU/L, the ALT (6 h) was 36.4 IU/L and the AST (6 h) was 66.6 IU/L. It also gave a BUN (6 h) of 11.4 mg/dL, a CRE (6 h) of 0.5 mg/dL and a Ca (6 h) of 10.4 mg/dL. The Cl (6 h) was 107.8 meq/L, the DBIL (6 h) was 0.002 mg/dL and the GLC (6 h) was 184.6 mg/dL. The IP (6 h) was 11.3 mg/dL, the K (6 h) was 5.4 meq/L and the LDH (6 h) was 96.8 IU/L. It also gave a Na (6 h) of 139.4 meq/L, a PL (6 h) of 144.4 mg/dL and an RALB (6 h) of 3.8 g/dL. It also gave a TBIL (6 h) of 0.3 mg/dL, a TC (6 h) of 82 mg/dL and a TG (6 h) of 52.2 mg/dL. It also gave a TP (6 h) of 5.6 g/dL, a gamma-GTP (6 h) of 1.4 IU/L and a TERMINAL_BW (9 h) of 180 g. It also gave an APTT (9 h) of 16 s, a Bas (9 h) of 0% and an Eos (9 h) of 0.8%. For the same compound, the Fbg (9 h) was 206.8 mg/dL, the Hb (9 h) was 13.1 g/dL and the Ht (9 h) was 39.4%. It also gave a Lym (9 h) of 79.2%, an MCH (9 h) of 21.9 pg and an MCHC (9 h) of 33.3%. The MCV (9 h) was 65.9 fL, the Mono (9 h) was 6.4% and the Neu (9 h) was 14%. It also gave a PT (9 h) of 12.4 s, a Plat (9 h) of 117.4 x10_4/uL and an RBC (9 h) of 598.6 x10_4/ul. For the same compound, the Ret (9 h) was 9.2%, the WBC (9 h) was 106.8 x10_2/uL and the KIDNEY_L (9 h) was 0.9 g. It also gave a KIDNEY_R (9 h) of 0.9 g, a KIDNEY_TOTAL (9 h) of 1.7 g and an LIVER (9 h) of 7.4 g. It also gave an A/G (9 h) of 2.1, an ALP (9 h) of 975.8 IU/L and an ALT (9 h) of 31.2 IU/L. It also gave an AST (9 h) of 59.4 IU/L, a BUN (9 h) of 12.4 mg/dL and a CRE (9 h) of 0.5 mg/dL. The Ca (9 h) was 10.7 mg/dL, the Cl (9 h) was 106 meq/L and the DBIL (9 h) was 0.022 mg/dL. For the same compound, the GLC (9 h) was 190.8 mg/dL, the IP (9 h) was 11 mg/dL and the K (9 h) was 5.1 meq/L. The LDH (9 h) was 82.2 IU/L, the Na (9 h) was 138.2 meq/L and the PL (9 h) was 139 mg/dL. It also gave an RALB (9 h) of 3.7 g/dL, a TBIL (9 h) of 0.3 mg/dL and a TC (9 h) of 79.4 mg/dL. The TG (9 h) was 36.6 mg/dL, the TP (9 h) was 5.5 g/dL and the gamma-GTP (9 h) was 1.6 IU/L. It also gave a TERMINAL_BW (24 h) of 191.8 g, an APTT (24 h) of 16.1 s and a Bas (24 h) of 0%. The Eos (24 h) was 0.8%, the Fbg (24 h) was 205.4 mg/dL and the Hb (24 h) was 13.2 g/dL. For the same compound, the Ht (24 h) was 39.3%, the Lym (24 h) was 77.2% and the MCH (24 h) was 21.8 pg. The MCHC (24 h) was 33.4%, the MCV (24 h) was 65.1 fL and the Mono (24 h) was 8.8%. For the same compound, the Neu (24 h) was 13.6%, the PT (24 h) was 12.5 s and the Plat (24 h) was 106.5 x10_4/uL. For the same compound, the RBC (24 h) was 604.2 x10_4/ul, the Ret (24 h) was 8.3% and the WBC (24 h) was 132 x10_2/uL. For the same compound, the KIDNEY_L (24 h) was 0.9 g, the KIDNEY_R (24 h) was 0.9 g and the KIDNEY_TOTAL (24 h) was 1.8 g. It also gave an LIVER (24 h) of 9 g, an A/G (24 h) of 1.9 and an ALP (24 h) of 985.2 IU/L. For the same compound, the ALT (24 h) was 37 IU/L, the AST (24 h) was 64.4 IU/L and the BUN (24 h) was 16.2 mg/dL. The CRE (24 h) was 0.5 mg/dL, the Ca (24 h) was 10.8 mg/dL and the Cl (24 h) was 105.4 meq/L. For the same compound, the DBIL (24 h) was 0 mg/dL, the GLC (24 h) was 184.4 mg/dL and the IP (24 h) was 7.9 mg/dL. The K (24 h) was 5.5 meq/L, the LDH (24 h) was 92.6 IU/L and the Na (24 h) was 137.8 meq/L. The PL (24 h) was 138 mg/dL, the RALB (24 h) was 3.7 g/dL and the TBIL (24 h) was 0.3 mg/dL. It also gave a TC (24 h) of 76 mg/dL, a TG (24 h) of 82.8 mg/dL and a TP (24 h) of 5.6 g/dL. For the same compound, the gamma-GTP (24 h) was 1.2 IU/L.

Source: ChEMBL document CHEMBL3885861, “Open TG-GATES”
